What was measured:
Format in all cases: in vivo
[1] = test system: post-menopausal women; test: Dose-finding study: hot flush weekly weighted score
Protocol: Further, the terms “Hot Flush Weekly Weighted Score”, as used herein, corresponds to a score taking into account frequency and severity which is calculated by using the severity score (as calculated above): [(1×No. of mild VMS)+(2×No. of moderate VMS)+(3×No. of severe VMS)] during a 7 day period.
Such a weighted score was for example used by Notelovitz et al. (“Initial 17β-Estradiol Dose for Treating Vasomotor Symptoms”; Obstetrics and Gynaecology, Vol. 95(5), May 2000, p. 726-731). This score was used to generate the data included in Example 1 further below, under section A. c) “Hot Flush Weekly Weighted Score”.

[2] = test system: post-menopausal women; test: GSM symptom: vaginal and/or vulvar irritation/itching
Protocol: Change from baseline to week 12 in the following GSM symptoms (VVA subject self-assessment) were recorded: • a) Vaginal dryness (sensation of dryness or burning in the vagina; none=0 mild=1, moderate=2 or severe=3):
• b) Vaginal and/or vulvar irritation/itching (sensation of abnormal irritation or sensitive condition in the vagina; none=0, mild=1, moderate=2 or severe=3): […]

[3] = test system: C-terminal telopeptide (CTX-1); test: C-terminal telopeptide (CTX-1), marker of bone resorption

Which “Relative change (% from baseline) in hot flush weekly weighted score, mean” value ([1]; 10 mg per day, week 0) does the source give for `C[C@]12CC[C@@H]3c4ccc(O)cc4CC[C@H]3[C@@H]1[C@@H](O)[C@@H](O)[C@@H]2O` [Estetrol, 1,3,5 (10)-estratrien-3,15alpha,16alpha,17beta-tetrol] here?
Its value is 0%.

And the “Relative change (% from baseline) in hot flush weekly weighted score, mean (section B analysis)” value ([1]; 10 mg per day, week 0)?
The value was 0%.

And the “Relative change (% from baseline) in hot flush weekly weighted score, mean (section B analysis)” value ([1]; 10 mg per day, week 1)?
Its value is −20%.

What about the “Relative change (% from baseline) in hot flush weekly weighted score, mean (section B analysis)” value ([1]; 10 mg per day, week 2) of the same compound?
The value was −34%.

What about the “Relative change (% from baseline) in hot flush weekly weighted score, mean (section B analysis)” value ([1]; 10 mg per day, week 3) of the same compound?
Its value is −46%.

And the “Relative change (% from baseline) in hot flush weekly weighted score, mean (section B analysis)” value ([1]; 10 mg per day, week 4)?
Its value is −53%.

And the “Relative change (% from baseline) in hot flush weekly weighted score, mean (section B analysis)” value ([1]; 10 mg per day, week 5)?
The value was −57%.

And the “Relative change (% from baseline) in hot flush weekly weighted score, mean (section B analysis)” value ([1]; 10 mg per day, week 6)?
Its value is −62%.

What about the “Relative change (% from baseline) in hot flush weekly weighted score, mean (section B analysis)” value ([1]; 10 mg per day, week 7) of the same compound?
Its value is −64%.

What about the “Relative change (% from baseline) in hot flush weekly weighted score, mean (section B analysis)” value ([1]; 10 mg per day, week 8) of the same compound?
The value was −66%.

What about the “Relative change (% from baseline) in hot flush weekly weighted score, mean (section B analysis)” value ([1]; 10 mg per day, week 9) of the same compound?
The value was −66%.

What about the “Relative change (% from baseline) in hot flush weekly weighted score, mean (section B analysis)” value ([1]; 10 mg per day, week 10) of the same compound?
Its value is −68%.

What about the “Relative change (% from baseline) in hot flush weekly weighted score, mean (section B analysis)” value ([1]; 10 mg per day, week 11) of the same compound?
The value was −68%.

And the “Relative change (% from baseline) in hot flush weekly weighted score, mean (section B analysis)” value ([1]; 10 mg per day, week 12)?
The value was −69%.

What about the “Relative change (% from baseline) in hot flush weekly weighted score, mean” value ([1]; 15 mg per day, week 0) of the same compound?
The value was 0%.

And the “Relative change (% from baseline) in hot flush weekly weighted score, mean (section B analysis)” value ([1]; 15 mg per day, week 0)?
Its value is 0%.

And the “Relative change (% from baseline) in hot flush weekly weighted score, mean (section B analysis)” value ([1]; 15 mg per day, week 1)?
Its value is −22%.

What about the “Relative change (% from baseline) in hot flush weekly weighted score, mean (section B analysis)” value ([1]; 15 mg per day, week 2) of the same compound?
Its value is −45%.

And the “Relative change (% from baseline) in hot flush weekly weighted score, mean (section B analysis)” value ([1]; 15 mg per day, week 3)?
The value was −56%.

And the “Relative change (% from baseline) in hot flush weekly weighted score, mean (section B analysis)” value ([1]; 15 mg per day, week 4)?
The value was −66%.

What about the “Relative change (% from baseline) in hot flush weekly weighted score, mean (section B analysis)” value ([1]; 15 mg per day, week 5) of the same compound?
The value was −70%.

And the “Relative change (% from baseline) in hot flush weekly weighted score, mean (section B analysis)” value ([1]; 15 mg per day, week 6)?
The value was −72%.

And the “Relative change (% from baseline) in hot flush weekly weighted score, mean (section B analysis)” value ([1]; 15 mg per day, week 7)?
Its value is −75%.

And the “Relative change (% from baseline) in hot flush weekly weighted score, mean (section B analysis)” value ([1]; 15 mg per day, week 8)?
Its value is −76%.

What about the “Relative change (% from baseline) in hot flush weekly weighted score, mean (section B analysis)” value ([1]; 15 mg per day, week 9) of the same compound?
The value was −78%.

What about the “Relative change (% from baseline) in hot flush weekly weighted score, mean (section B analysis)” value ([1]; 15 mg per day, week 10) of the same compound?
The value was −77%.

What about the “Relative change (% from baseline) in hot flush weekly weighted score, mean (section B analysis)” value ([1]; 15 mg per day, week 11) of the same compound?
The value was −79%.

What about the “Relative change (% from baseline) in hot flush weekly weighted score, mean (section B analysis)” value ([1]; 15 mg per day, week 12) of the same compound?
Its value is −81%.

And the “Vaginal and/or vulvar irritation/itching score (none=0 to severe=3), mean ± SD” value ([2]; E4 2.5 mg, Baseline)?
The value was 0.7 ± 0.96.

What about the “Vaginal and/or vulvar irritation/itching score (none=0 to severe=3), mean ± SD” value ([2]; E4 2.5 mg, Week 12) of the same compound?
The value was 0.3 ± 0.60.

And the “Vaginal and/or vulvar irritation/itching score (none=0 to severe=3), mean ± SD” value ([2]; E4 5 mg, Baseline)?
The value was 0.6 ± 0.90.

And the “Vaginal and/or vulvar irritation/itching score (none=0 to severe=3), mean ± SD” value ([2]; E4 5 mg, Week 12)?
The value was 0.4 ± 0.65.

And the “Vaginal and/or vulvar irritation/itching score (none=0 to severe=3), mean ± SD” value ([2]; E4 10 mg, Baseline)?
The value was 0.7 ± 0.87.

And the “Vaginal and/or vulvar irritation/itching score (none=0 to severe=3), mean ± SD” value ([2]; E4 10 mg, Week 12)?
The value was 0.3 ± 0.64.

And the “Vaginal and/or vulvar irritation/itching score (none=0 to severe=3), mean ± SD” value ([2]; E4 15 mg, Baseline)?
Its value is 0.5 ± 0.85.

What about the “Vaginal and/or vulvar irritation/itching score (none=0 to severe=3), mean ± SD” value ([2]; E4 15 mg, Week 12) of the same compound?
The value was 0.4 ± 0.70.

What about the “Bone resorption (CTX-1), decrease compared with 15 mg daily dose” value ([3]; 20 mg daily dose, after 28 days of treatment) of the same compound?
The value was “more pronounced”.

What about the “C-Terminal Telopeptide (CTX-1), Baseline, Mean” value ([3]; E4 15 mg daily) of the same compound?
Its value is 416.0 ng/L.

And the “C-Terminal Telopeptide (CTX-1), Baseline, Median” value ([3]; E4 15 mg daily)?
Its value is 339.0 ng/L.

What about the “C-Terminal Telopeptide (CTX-1), End Of Treatment Actual Change from Baseline, Mean” value ([3]; E4 15 mg daily, after 12 weeks) of the same compound?
The value was -95.0 ng/L.

What about the “C-Terminal Telopeptide (CTX-1), End Of Treatment Actual Change from Baseline, Median” value ([3]; E4 15 mg daily, after 12 weeks) of the same compound?
The value was -142.5 ng/L.

What about the “C-Terminal Telopeptide (CTX-1), End Of Treatment Actual Value, Mean” value ([3]; E4 15 mg daily, after 12 weeks) of the same compound?
The value was 320.9 ng/L.

What about the “C-Terminal Telopeptide (CTX-1), End Of Treatment Actual Value, Median” value ([3]; E4 15 mg daily, after 12 weeks) of the same compound?
The value was 197.5 ng/L.

From patent US12458651B2, “Compounds and their uses for alleviating menopause-associated symptoms” (ESTETRA SRL, priority 2018, dated 2025)
